According to patent US20240383852A1, “ANTI-VIRAL COMPOUNDS” (INFEX Therapeutics Limited, priority 2021, published 2024):
pIC50: −log10 of the molar value. Like-named read-outs stand apart in the source and are kept apart here.

Columns and labels:
[1] = system: human Hep G2 cells (ATCC HB-8065); assay: Cytotoxicity in Hep G2 cells (CellTiter-Glo); type: cell-based
SARS-CoV-2 = assay: Anti-viral potency in VERO E6 cells (cytopathic viral activity, crystal violet); type: cell-based; settings: Severe acute respiratory syndrome coronavirus 2, Vero C1008, 48 h, read-out: SARS-COV-2 EC50 (μM)
SARS-CoV-2 PLpro = biological target: T1, SARS-CoV-2 PLpro (Severe acute respiratory syndrome coronavirus 2, UniProt P0DTD1); assay: biochemical
T1 construct: containing 60 nM papain-like protease

[2] = Hep G2 cells, 100 μM test article, 24-hour exposure
[3] = 60 nM papain-like protease, 50 μM Z-RLRGG-AMC, pH 7.5, 37° C., read-out: SARS-CoV-2 PLpro IC50

SMILES	% Cell Viability [1, 2]	EC50 (SARS-CoV-2)	pIC50 (SARS-CoV-2 PLpro; [3])	% Cell Viability ([1]; human, 24 h, 100 μM)	pIC50 (SARS-CoV-2 PLpro)
COc1ccc([C@@H](C)NC(=O)c2cc(N3CC4CN(C)CC4C3)ccc2C)cc1OC (stereo partly drawn) [Example 9, N-[(1R)-1-(3,4-Dimethoxyphenyl)ethyl]-2-methyl-5-(2-methyl-1,3,3a,4,6,6a-hexahydropyrrolo[3,4-c]pyrrol-5-yl)benzamide]	96.5%	< 15 µM	> 5.30		
COc1ccc([C@@H](C)NC(=O)c2cc(N3C[C@H]4CC[C@@H](C3)N4C)ccc2C)cc1OC [Example 11, N-[(1R)-1-(3,4-Dimethoxyphenyl)ethyl]-2-methyl-5-[(1R,5S)-8-methyl-3,8-diazabicyclo[3.2.1]octan-3-yl]benzamide]		< 5 µM		95.6%	> 5.70
Cc1ccc(N2CCN(C)CC2)cc1C(=O)N[C@H](C)c1cccc(-c2cn(C)nc2C)c1 [Example 61, N-[(1R)-1-[3-(1,3-Dimethylpyrazol-4-yl)phenyl]ethyl]-2-methyl-5-(4-methylpiperazin-1-yl)benzamide]	69.2%	< 5 µM	> 5.70		
CCn1cc(-c2cccc([C@@H](C)NC(=O)c3cc(N4CCN(C)CC4)ccc3C)c2)cn1 [Example 64, N-[(1R)-1-[3-(1-Ethylpyrazol-4-yl)phenyl]ethyl]-2-methyl-5-(4-methylpiperazin-1-yl)benzamide]	78.6%	< 5 µM	> 5.70		
Cc1ccc(N2CCNCC2)cc1C(=O)N[C@H](C)c1cccc(-c2cnn(C)c2)c1 [Example 72, 2-Methyl-N-[(1R)-1-[3-(1-methylpyrazol-4-yl)phenyl]ethyl]-5-piperazin-1-yl-benzamide]	79.0%	< 5 µM	> 5.70		
Cc1ccc(N2CCN(C)CC2)cc1C(=O)N[C@H](C)c1cccc(-c2cc(C(=O)N(C)C)n(C)c2)c1 [Example 102, N,N,1-Trimethyl-4-[3-[(1R)-1-[[2-methyl-5-(4-methylpiperazin-1-yl)benzoyl]amino]ethyl]phenyl]pyrrole-2-carboxamide]	75.9%	< 5 µM	> 5.70		
COc1ccc([C@@H](C)NC(=O)c2cc(N3CCN(C)CC3)ccc2C)cc1-c1cnn(C)c1 [Example 205, N-[(1R)-1-[4-Methoxy-3-(1-methylpyrazol-4-yl)phenyl]ethyl]-2-methyl-5-(4-methylpiperazin-1-yl)benzamide]	105.8%	< 5 µM	> 5.70		
COc1ccc([C@@H](C)NC(=O)c2cc(N3CCN(C)CC3)ccc2C)cc1-c1cn(C)nc1C [Example 212, N-[(1R)-1-[3-(1,3-Dimethylpyrazol-4-yl)-4-methoxy-phenyl]ethyl]-2-methyl-5-(4-methylpiperazin-1-yl)benzamide]	96.8%	< 5 µM	> 5.70		
COc1cc(OC)c([C@@H](C)NC(=O)c2cc(N3CCN(C)CC3)ccc2C)cc1-c1cnn(C)c1 [Example 215, N-[(1R)-1-[2,4-Dimethoxy-5-(1-methylpyrazol-4-yl)phenyl]ethyl]-2-methyl-5-(4-methylpiperazin-1-yl)benzamide]	80.1%	< 5 µM	> 5.70		
Cc1ccc(N2CCN(C)CC2)cc1C(=O)N[C@H](C)c1ccc(F)c(-c2cnn(C)c2)c1 [Example 217, N-[(1R)-1-[4-Fluoro-3-(1-methylpyrazol-4-yl)phenyl]ethyl]-2-methyl-5-(4-methylpiperazin-1-yl)benzamide]	61.7%	< 5 µM	> 5.70		
CCn1cc(-c2cc(OC)cc([C@@H](C)NC(=O)c3cc(N4CCN(C)CC4)ccc3C)c2)cn1 [Example 220, N-[(1R)-1-[3-(1-Ethylpyrazol-4-yl)-5-methoxy-phenyl]ethyl]-2-methyl-5-(4-methylpiperazin-1-yl)benzamide]	80.7%	< 15 µM	> 5.70		
